Data as given in article PMC12615753, “Glutathione as a taste modulator: molecular mechanisms of interaction with umami and sweet taste receptors” (Food Chemistry: Molecular Sciences, 2025).
Entries after “also recorded” stand apart in the source; their conditions may differ.

Target: T1, hTAS1R1 H71S/rTAS1R3 (Homo sapiens, UniProt Q7RTX1, H71S)
T1 construct: UniProtKB number Q7RTX1–1); expressed in transfected cells; host or cells: HEK293T/17 (ATCC CRL-11268)
T1 sequence (Q7RTX1 21-841 H71S): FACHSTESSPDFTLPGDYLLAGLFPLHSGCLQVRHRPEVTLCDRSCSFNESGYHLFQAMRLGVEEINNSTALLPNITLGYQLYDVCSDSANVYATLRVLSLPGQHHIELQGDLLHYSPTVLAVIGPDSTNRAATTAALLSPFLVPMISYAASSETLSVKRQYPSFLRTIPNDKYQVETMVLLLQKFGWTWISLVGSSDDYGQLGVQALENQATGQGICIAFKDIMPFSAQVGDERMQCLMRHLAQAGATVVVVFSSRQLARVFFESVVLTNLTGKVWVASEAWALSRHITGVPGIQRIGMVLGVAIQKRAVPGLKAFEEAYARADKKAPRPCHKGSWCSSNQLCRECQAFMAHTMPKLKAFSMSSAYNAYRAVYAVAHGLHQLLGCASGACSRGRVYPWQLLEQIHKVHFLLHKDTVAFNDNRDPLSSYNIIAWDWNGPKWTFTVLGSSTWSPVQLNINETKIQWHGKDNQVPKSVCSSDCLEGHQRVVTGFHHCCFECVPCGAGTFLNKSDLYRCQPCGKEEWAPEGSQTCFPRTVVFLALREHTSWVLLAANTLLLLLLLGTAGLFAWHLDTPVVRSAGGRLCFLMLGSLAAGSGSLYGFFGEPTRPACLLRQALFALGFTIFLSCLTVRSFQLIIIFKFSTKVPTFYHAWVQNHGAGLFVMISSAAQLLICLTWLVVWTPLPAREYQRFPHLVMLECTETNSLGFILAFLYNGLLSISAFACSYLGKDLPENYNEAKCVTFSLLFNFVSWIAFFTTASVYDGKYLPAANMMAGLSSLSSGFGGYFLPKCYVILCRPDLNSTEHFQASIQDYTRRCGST
T1 sequence (Q923K1 21-858 partner): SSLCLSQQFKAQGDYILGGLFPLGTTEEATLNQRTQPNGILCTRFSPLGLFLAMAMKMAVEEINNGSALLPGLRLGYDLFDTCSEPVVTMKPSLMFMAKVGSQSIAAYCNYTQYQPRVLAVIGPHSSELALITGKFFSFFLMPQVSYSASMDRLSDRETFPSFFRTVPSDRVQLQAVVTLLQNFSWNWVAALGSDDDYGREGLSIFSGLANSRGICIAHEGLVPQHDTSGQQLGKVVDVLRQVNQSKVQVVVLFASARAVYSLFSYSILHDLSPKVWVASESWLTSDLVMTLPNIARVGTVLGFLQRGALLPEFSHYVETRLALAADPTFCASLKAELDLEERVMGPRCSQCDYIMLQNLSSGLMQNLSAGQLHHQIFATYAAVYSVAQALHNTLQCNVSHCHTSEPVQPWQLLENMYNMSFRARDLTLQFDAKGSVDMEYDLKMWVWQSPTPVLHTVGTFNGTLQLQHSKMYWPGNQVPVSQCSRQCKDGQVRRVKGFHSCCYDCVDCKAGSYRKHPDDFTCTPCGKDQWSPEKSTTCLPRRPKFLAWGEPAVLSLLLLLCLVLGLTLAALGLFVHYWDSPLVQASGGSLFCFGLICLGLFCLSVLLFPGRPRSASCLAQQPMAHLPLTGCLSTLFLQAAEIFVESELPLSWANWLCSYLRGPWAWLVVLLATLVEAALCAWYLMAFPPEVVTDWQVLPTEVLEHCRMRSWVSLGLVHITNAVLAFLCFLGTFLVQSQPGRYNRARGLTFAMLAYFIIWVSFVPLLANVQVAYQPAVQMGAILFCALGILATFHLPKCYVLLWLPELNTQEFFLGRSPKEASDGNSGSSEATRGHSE
Experiment: Calcium assay, hTAS1R1 mutant co-expressed with rTAS1R3
Type: cell-based, rat
Conditions: for response to the agonist alone, vs WT: H71S
Excerpt: Chimeric Gα proteins, such as Gα16Gust44, Gα16Gi3 or Gα15i2, are widely used in the functional expression of TAS1R receptors ([Backes et al., 2015]; [Suess et al., 2015]; [Toda et al., 2021], [Toda et al., 2013], [Toda et al., 2018]; [Zhang et al., 2008]). Chimeric Gα15i2 (([Toda et al., 2013]), Supplementary data) was generated by replacing the last five residues of the C-terminal tail of rat Gα15i2 (EINLL) (UniProt number G3V6N8; https://www.uniprot.org/uniprot/) with the counterpart sequence from human GNAI2 (DCGLF) (UniProt number P04899-1) and cloning into the pcDNA3.1/Hygro vector (Invitrogen, Thermo Fisher Scientific, Illkirch, France) between the HindIII and NotI restriction sites, resulting in the plasmid pcDNA3.1-Gα15i2. Chimeric Gα16Gust44 construct have already been reported ([Raliou et al., 2011]). Briefly, Gα16Gust44 was generated by replacing the C-terminal of Gα16 with the C-terminal 44 residues of gustducin. As previously described, hTAS1R1 was amplified from human fungiform papillae cDNA and cloned and inserted into pcDNA3 (Invitrogen), generating pcDNA3-TAS1R1-WT (wild-type) ([Raliou et al., 2011]). […] The cDNA coding region of rTAS1R3 was synthesized with optimized-codon usage for human expression (Genewiz) and was cloned and inserted into the mammalian pcDNA4/myc-HisA (Invitrogen) expression vector between the EcoRI and NotI restriction sites, resulting in the plasmid pcDNA4-rTAS1R3. […] The sequence integrity of all the plasmid constructs was verified via automated DNA sequencing (Genewiz).
The hTAS1R1 mutants were co-expressed with the rTAS1R3 subunit in HEK293 cells. […] As a control, the functionality of the mutated receptors was checked after stimulation with S807 (Fig. S8), which interacts with TAS1R1-TMD ([Zhang et al., 2008]).

Row | Compound | EC50 [mM] | response to the agonist alone, vs WT
1 | N[C@@H](CCC(=O)N[C@@H](CS)C(=O)NCC(=O)O)C(=O)O [GSH, γ-L-glutamyl-L-cysteinyl-glycine] | > 30 | fully abolished; also recorded: completely abolished
2 | N[C@@H](CCC(=O)O)C(=O)O [L-Glu, L-glutamic acid, reference compound] | – | completely suppressed; also recorded: completely abolished
3 | CCCC(CCC)NC(=O)c1ccc2c(c1)OCO2 [S807, N-(heptan-4-yl)benzo[d][1,3]dioxole-5-carboxamide, reference compound] | – | unaffected
